Consider nine compounds from patent EP0461869A2, “Chemotherapeutic agents” (MERCK & CO. INC., priority 1990, dated 1991).

The target in assay [1] is T1, Farnesyl-protein transferase from bovine brain (partially purified enzyme preparation) (Bos taurus, UniProt P29702+P49355).
T1 construct: the indicated compounds were incubated with this partially purified enzyme preparation; from tissue; host or cells: bovine brain; chromatographed on DEAE-Sephacel and N-octyl agarose
Nature of the assay: Competition of Ras farnesylation by polyisoprenoids and peptides (Hepes-buffered assay, immunoprecipitation and nitrocellulose filtration). The class given is biochemical. The note with it: for competition of the farnesylation reaction (in words): 0.5 µM [3H]FPP and 1 µM Ras; for IC50: [Leu68]RAS1(term.)CVLS at 1 µM, 0.5 µM [3H]FPP, 10 min at 24° C, average of 2-5 determinations, >> = no competition at the highest concentration tested.
Protocol: Enzyme reactions were analyzed by SDS-PAGE (sodium dodecyl sulfate/polyacrylamide gel electrophoresis) or immunoprecipitation. For gel analysis, each labeling reaction was boiled for 3 min in buffer containing 1% SDS/100 mM Tris-Cl, pH 6.8/10% glycerol/1% 2-mercaptoethanol, and loaded directly on 13.7% polyacrylamide gels. Radiolabeled Ras was visualized by autoradiography after fluorographic enhancement with Enlightning (New England Nuclear). For immunoprecipitation of radiolabelled Ras, reactions were first extracted with Triton X-114 using a modification of the procedure of Bordier (J. Biol. Chem. 256:1604-1607(1981). An aliquot (150 µl) of 1% Triton X-114 (Pierce) was added to the 50 µl reaction mix to achieve a final Triton X-114 concentration of 0.75%. Following 10 min. on ice, the tubes were transfered to a 37°C bath for 3 min. The cloudy solution was then centrifuged at 10,000 x g for 5 min. at room temperature. The upper aqueous phase was removed, and the detergent phase was diluted by the addition of 150 µl cold phosphate-buffed saline plus 150 µl of Ras monoclonal antibody Y13-259 coupled to Sepharose-protein A beads (Gutierrez et al. EMBO J. 8:1093-1098(1989) and Hancock et al. Cell 57:1167-1177(1989).
Farnesyl-protein transferase from bovine brain was chromatographed on DEAE-Sephacel (Pharmacia, 0-0.8 M NaCl gradient elution) and N-octyl agarose (Sigma, 0-0.6 M NaCl gradient elution). […] Reactions were analyzed by immunoprecipitation without the Triton X-114 extraction step followed by Nitrocellulose filtration.

The target in assay [2] is bovine brain farnesylprotein transferase activity (Bos taurus, UniProt P29702+P49355). Nature of the assay: Apparent Km estimation for farnesylation of Ras, varying [14C]FPP and [Leu61]Ha Ras concentration. The note with it: [14C]FPP varied 0.03-30 µM, [Leu61]Ha Ras varied 0.03-250 µM; estimated. It counts as biochemical. The method, then: Polyisoprenylation of Ras⁻ [³H]mevalonic acid (35 Ci/mmol) and [³H]farnesyl-PPi(FPP) FPP (20 Ci/mmol) were purchased from New England Nuclear. [¹⁴C]FPP (49.7 mCi/mmol) was prepared enzymatically from partially purified prenyl transferase, [4-¹⁴C]isopentyl-PPi (47.9 mCi/mmol, Amersham), and geranyl-PPi. Reactions contained 280 pmol (10 µCi) of [³H]mevalonic acid, 500 pmol (0.025 µCi) of [¹⁴C]FPP or 25 pmol (0.5 µci) of [³H]FPP. In a standard 50 µl reaction, 250 pmol of Ras purified from E. coli (Gibbs et al. Proc. Natl. Acad. Sci. USA 86:6630-6634(1989)) was added to 35 µl of rabbit reticulocyte lysate (Promega, L4210) or a tissue extract (100,00 x g supernatant, 10 mg/ml). Buffer conditions were adjusted by the addition of one-tenth volume of 500 mM Tris-Cl, pH 8.0/50 mM MgCl₂ or one-tenth volume of 500 mM NaHepes, pH 7.5/50 mM MgCl₂/50mM dithiothreitol. In the Tris-buffered assay, the reactions were incubated for 1 hour at 24°C. Reaction velocities in the Hepes buffered assays were at least four times greater, and incubations were for 10 minutes at 24°C. Tissue extracts were prepared as described previously [(ethylenebis(oxyethylenenitrilo)]tetra-acetic acid in buffer containing 50 mM Tris-Cl, pH 8.0/1 mM EGTA/1 mM MgCl₂/1 mM dithiothreitol/10 µl/ml aprotinin/0.5 mM phenylmethlysulfonyl fluoride. […]

Consider `CC(C)=CCCC(C)=CCCC(C)=CCO` [Farnesol], for which, in assay [1], the “competition of the farnesylation reaction (in words)” value (shortened to “competition”) is “inactive” and the IC50 (usually the concentration that inhibits the measured activity by half) is over 100 µM. For S-(trans, trans) farnesyl-CVLS, the IC50 in assay [1] was 28 µM. As to `CC(C)=CCC/C(C)=C/CC/C(C)=C/CC/C(C)=C/CO` [Geranylgeraniol], in assay [1], the “competition” value was “inactive” and the IC50 was over 100 µM. On to “Cys-Val-Leu-Ser (CVLS; printed: Cys-Val-Leu-Ser)”, for which the IC50 in assay [1] is 2.2 µM.

S-(trans, trans) farnesyl-CVIM gave an IC50 in assay [1] of 1.4 µM. As to `CC(C)=CCC/C(C)=C/CC/C(C)=C/COP(=O)(O)OP(=O)(O)O` [Farnesyl-PPi], in assay [1], the “competition” value is “potently inhibited” and the IC50 stood at 0.7 µM. Also, the Km (commonly the substrate concentration at which the rate is half of its maximum) in assay [2] is 0.3 µM. For `CC(C)=CCOP(=O)(O)OP(=O)(O)O` [Dimethylallyl-PPi], in assay [1], the IC50 stood at 325 µM. Consider `CC(C)=CCC/C(C)=C/CC/C(C)=C/CC/C(C)=C/COP(=O)(O)OP(=O)(O)O` [Geranylgeranyl-PPi], for which, in assay [1], the “competition” value was “potently inhibited” and the IC50 was 1.4 µM. Regarding `CC(C)=CCC/C(C)=C/COP(=O)(O)OP(=O)(O)O` [Geranyl-PPi], the IC50 in assay [1] worked out at 67 µM.
